# Structures can show the parent of a compound that is named as a salt. Where two headings read alike, the source gives them in different places.
# What was measured:
# IL23p19 in THP-1 Cells = assay: LPS induced IL23p19 in THP-1 cells (IFNγ primed), ELISA; type: cell-based; details: Homo sapiens, THP-1 cells IFNγ primed, LPS 1 μg/mL, 18 h, read-out: IL23-p19 ELISA, THP1-IFNy, LPS, 10 pt EC50
# Experimental: On day 1, 50K/well THP-1 cells were seeded and primed with IFNγ (50 ng/mL) in 384-well plates for about 18 hours in RPMI media with 10% FBS. On day 2, the compound was serially diluted in DMSO from 5 mM in 3-fold dilutions, and then diluted 1:125 in RPMI media with 10% FBS. 50 μL/well 2× compound was added to 50 μL/well THP-1 cells (with IFNγ primed) in duplicate in 384 well tissue culture plates. The cells were pre-incubated with compound for 1 hour at 37° C., 5% CO2 before addition of 10 μL/well 11×LPS to give a final concentration of 1 μg/mL LPS. Day 3, after stimulation for 18 hours at 37° C., 5% CO2, the assay plate was centrifuged and 70 μL/well supernatant was harvested. IL-23p19 protein in 70 μL/well of supernatant was measured by sandwich ELISA, and 25 μl/well Cell Titer Glo reagent was added to the remaining cells to measure compound toxicity.
# Maxisorp immuno ELISA plates were pre-coated with 25 μL/well of anti-IL-23p19 capture antibody (2.5 ug/mL) in PBS overnight at room temperature. After washing with 1×PBST, the plates were blocked using 100 μL/well of 1% BSA in PBS for 2 hours at room temperature. The plates were washed three times with 1×PBST and 70 μL/well supernatant were added. The plates were incubated at room temperature for 2 hours with shaking and washed three times with 1×PBST. 25 μL/well of biotin labeled anti-IL-12 (p40/p70) detection antibody (100 ng/mL) in PBS with 1% BSA was added and the plates were incubated at room temperature for 2 hours with shaking. After washing three times with 1× PBST, 25 μL/well of streptavidin-HRP (1:200) in PBS with 1% BSA was added and the plates were incubated at room temperature for 20 minutes with shaking. The plates were washed three times with 1× PBST and 25 μL/well of Super Signal ELISA Pico Chemiluminescent Substrate were added. The plates were read with a luminometer, and the chemiluminescence values were entered into Athena (Rigel) for curve fitting, EC50 calculation, and database storage.
# THP-1 cells (100K in 100 μL/well) were primed with 25 ng/mL IFN-γ for 18 hours at 37° C., 5% CO2. Compound was serially diluted in DMSO from 2.5 mM in 4-fold dilutions, and then diluted 1:125 in RPMI 1640 complete media with 10% FBS. 100 μL/well 2× compound was mixed with the 100 μL/well IFN-7 primed THP-1 in 96 well flat-bottom white tissue culture plates. The cells were pre-incubated with compound for 1 hour at 37° C., 5% CO2 and before addition of 10 μL/well 21×LPS to give a final concentration of […] for LPS. The cells were stimulated with LPS for 18 hours at 37° C., 5% CO2. After centrifugation, 100 μL/well supernatant was extracted by using a multichannel pipette. IL-23p19 or TNF-α protein in the supernatant were measured by sandwich ELISA. The remaining IFN-7 primed THP-1 cell pellets were used to perform cell viability assays to determine compound cell toxicity. The plates were read with a luminometer, and the chemiluminescence values were entered into Athena (Rigel) for curve fitting, EC50 calculation, and database storage.
# Maxisorp immuno ELISA plates were pre-coated with 100 μL/well of anti-IL-23p19 capture antibody (2.4 μg/mL) in PBS overnight at room temperature. After washing with 1×PBST, the plates were blocked using 300 μL/well of 1% BSA in PBS for 2 hours at room temperature. The plates were washed three times with 1×PBST and 100 μL/well supernatant was added. The plates were incubated at room temperature for 2 hours with shaking. The plates were washed three times with 1×PBST and 100 μL/well of biotin anti-human IL-12 (p40/70) detection antibody (10 ng/mL) in PBS with 0.1% BSA were added. The plates were incubated at room temperature for 2 hours with shaking. The plates were washed three times with 1×PBST and 100 μL/well streptavidin-HRP (1:200) in PBS with 0.1% BSA was added. The plates were incubated at room temperature for 20 minutes with shaking. […]
# IRAK4 = target: T1, IRAK4 (Homo sapiens, UniProt Q9NWZ3); assay: IRAK4 ADP-Glo kinase assay; type: biochemical; details: read-out: IRAK4 ADP-Glo Kinase, 8 pt EC50
# T1 construct: purchased Signalchem I12-10G-20
# T1 sequence (Q9NWZ3 1-460): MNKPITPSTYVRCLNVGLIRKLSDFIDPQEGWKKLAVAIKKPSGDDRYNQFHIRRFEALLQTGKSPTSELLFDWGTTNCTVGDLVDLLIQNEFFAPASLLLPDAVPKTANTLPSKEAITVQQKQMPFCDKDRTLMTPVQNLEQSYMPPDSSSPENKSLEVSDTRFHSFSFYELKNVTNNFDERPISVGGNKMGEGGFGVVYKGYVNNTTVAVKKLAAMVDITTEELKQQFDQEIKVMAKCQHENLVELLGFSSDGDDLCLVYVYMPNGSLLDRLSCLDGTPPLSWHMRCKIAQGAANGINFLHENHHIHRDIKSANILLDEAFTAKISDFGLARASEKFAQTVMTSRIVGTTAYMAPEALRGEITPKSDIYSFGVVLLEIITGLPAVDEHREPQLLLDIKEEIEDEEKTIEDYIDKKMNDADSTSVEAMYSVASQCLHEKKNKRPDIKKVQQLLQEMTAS
# Experimental: The ADP-Glo™ reagents were thawed at ambient temperature. The Kinase Detection Reagent was prepared by mixing kinase detection buffer with the lyophilized kinase detection substrate, and set aside.
# A stock volume of 5× Reaction Kinase Buffer was made with a final concentration of 100 mM MgCl2, 200 mM Tris-HCl, and 0.5 mg/ml of BSA, in distilled H2O with a final pH7.4. A 2× working stock volume of Reaction Kinase Buffer was made containing a final concentration of 100 μM DTT.
# The components of IRAK4 Enzyme were thawed on ice. Diluted IRAK4 in 1× Kinase Reaction Buffer (diluted from 2× buffer) was prepared at […]. A 250 μM working stock ATP Assay Solution was prepared in 1× Kinase Reaction Buffer (diluted from 2× buffer).
# The compound was diluted in DMSO from 250 µM in 4-fold series dilutions for 8 points. Then diluted 1:5 in 2× Reaction Buffer in a 96 well plate. 1.0 μl was transferred to a 384 well plate in duplicate. […] 1 μl of 1 mg/ml stock solution of MBP substrate was added NOTE: MBP can be combined with ATP mix with equal volume and then added at 2 μl/well. Final reaction volume was 5 μl. The plate was centrifuged and the reaction mixture was incubated at room temperature for 60 minutes or at 30° C. for 30 minutes.
# The reaction was terminated and the remaining ATP was depleted by adding 5 μl of ADP-Glo™ Reagent. The 384-well plate was centrifuged and then the reaction mixture was incubated for another 40 minutes at ambient temperature.
# 10 μl of the Kinase Detection Reagent was added. The plate was centrifuged and then the reaction mixture was incubated for another 30 minutes at ambient temperature.
# The 384-well reaction plate was read using the WALLAC plate reader (Luminescence 0.1s).
# IRAK1 = IRAK1 (Homo sapiens, UniProt P51617); assay: IRAK1 ADP-Glo kinase assay; type: biochemical; details: read-out: IRAK1 ADP-Glo Kinase, 8 pt EC50
# Sequence of IRAK1 (P51617 whole entry): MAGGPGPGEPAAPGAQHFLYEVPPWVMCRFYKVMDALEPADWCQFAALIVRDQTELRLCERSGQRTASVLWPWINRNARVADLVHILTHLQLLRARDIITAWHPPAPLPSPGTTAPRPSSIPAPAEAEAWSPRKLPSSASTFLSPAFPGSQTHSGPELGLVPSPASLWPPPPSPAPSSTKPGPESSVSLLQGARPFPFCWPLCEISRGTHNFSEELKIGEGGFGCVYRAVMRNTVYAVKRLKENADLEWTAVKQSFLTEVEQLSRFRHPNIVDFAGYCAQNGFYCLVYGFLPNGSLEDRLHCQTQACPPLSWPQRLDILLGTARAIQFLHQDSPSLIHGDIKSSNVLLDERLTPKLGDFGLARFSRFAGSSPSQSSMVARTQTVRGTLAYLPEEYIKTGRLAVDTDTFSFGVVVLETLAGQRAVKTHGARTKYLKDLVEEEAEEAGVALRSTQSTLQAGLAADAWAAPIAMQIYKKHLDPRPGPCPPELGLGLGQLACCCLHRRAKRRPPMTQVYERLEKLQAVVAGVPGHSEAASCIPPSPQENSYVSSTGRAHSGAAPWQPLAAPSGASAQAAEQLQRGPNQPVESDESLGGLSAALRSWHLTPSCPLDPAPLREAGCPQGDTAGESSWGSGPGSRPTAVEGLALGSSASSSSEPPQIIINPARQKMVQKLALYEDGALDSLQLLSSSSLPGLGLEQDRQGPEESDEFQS
# [1] = Bioavailability of prodrug I-3, mouse; type: in vivo; details: measured as amount of parent compound I-1 detected
# [2] = Bioavailability of prodrug I-3, rat; type: in vivo; details: measured as amount of parent compound I-1 detected
# [3] = Bioavailability of prodrug I-3, monkey; type: in vivo; details: measured as amount of parent compound I-1 detected
# [4] = Bioavailability of prodrug I-3, dog; type: in vivo; details: measured as amount of parent compound I-1 detected
Structure (SMILES),EC50 (IL23p19 in THP-1 Cells),EC50 (IRAK4),EC50 (IRAK1),"EC50 (IL23p19 in THP-1 Cells; THP-1, 18 h)",Bioavailability (% F) of Compound I-3 [1],Bioavailability (% F) of Compound I-3 [2],Bioavailability (% F) of Compound I-3 [3],Bioavailability (% F) of Compound I-3 [4]
"CCO[C@H]1CC[C@H](n2cc(NC(=O)c3csc(-c4cnn(COP(=O)(O)O)c4)n3)c(-c3ncccn3)n2)CC1 [Compound I-2, (4-(4-((1-((1r,4r)-4-ethoxycyclohexyl)-3-(pyrimidin-2-yl)-1H-pyrazol-4-yl)carbamoyl)thiazol-2-yl)-1H-pyrazol-1-yl)methyl dihydrogen phosphate]",0.011 µM,0.0464 µM,3.91 µM,–,–,–,–,–
"CCO[C@H]1CC[C@H](n2cc(NC(=O)c3csc(-c4cnn(COP(=O)(O)O)c4)n3)c(-c3ncccn3)n2)CC1 [Compound I-3, sodium (4-(4-((1-((1r,4r)-4-ethoxycyclohexyl)-3-(pyrimidin-2-yl)-1H-pyrazol-4-yl)carbamoyl)thiazol-2-yl)-1H-pyrazol-1-yl)methyl phosphate]",–,0.128 µM,0.0618 µM,0.0544 µM,34 % F,12 % F,71 % F,53 % F
"CCO[C@H]1CC[C@H](n2cc(NC(=O)c3csc(-c4cn[nH]c4)n3)c(-c3ncccn3)n2)CC1 [Compound I-4, N-(1-((1r,4r)-4-ethoxycyclohexyl)-3-(pyrimidin-2-yl)-1H-pyrazol-4-yl)-2-(1H-pyrazol-4-yl)thiazole-4-carboxamide tartaric acid salt]",–,0.0188 µM,0.0281 µM,0.0025 µM,–,–,–,–

# Reference: patent publication US12384775B2, “Pyrimid-2-yl-pyrazole compounds as IRAK inhibitors” (Rigel Pharmaceuticals, Inc., priority 2022, dated 2025)
